These results are taken from ChEMBL document CHEMBL1201862, “PubChem BioAssay data set” (2004).

The structures appear in SMILES notation. The source made the active and inactive calls.

The test system of assay [1] is Candida albicans. Put plainly: growth inhibition of azole-resistant C. albicans, dose response, CaCi-8 strain, Alamar Blue, dry powder, set 2 (AID 488909). Format: functional, organism-based. In general terms: The colour change of resazurin is a common sign of viable cells or microbes.
Assay [2] has as its target Bcl-2-like protein 1 (Homo sapiens, UniProt Q07817). Put plainly: BCL-XL inhibitors, dose response, selectivity assay for MCL1 inhibitor project, biochemical, fluorescence polarization, 1536-well (AID 2218).
For assay [3], the target named is NS3 (Hepatitis C virus, UniProt A3EZJ3). Put plainly: PubChem AID 2173. The arrangement: species or system Hepacivirus hominis.
NS3, sequence (A3EZJ3 whole entry): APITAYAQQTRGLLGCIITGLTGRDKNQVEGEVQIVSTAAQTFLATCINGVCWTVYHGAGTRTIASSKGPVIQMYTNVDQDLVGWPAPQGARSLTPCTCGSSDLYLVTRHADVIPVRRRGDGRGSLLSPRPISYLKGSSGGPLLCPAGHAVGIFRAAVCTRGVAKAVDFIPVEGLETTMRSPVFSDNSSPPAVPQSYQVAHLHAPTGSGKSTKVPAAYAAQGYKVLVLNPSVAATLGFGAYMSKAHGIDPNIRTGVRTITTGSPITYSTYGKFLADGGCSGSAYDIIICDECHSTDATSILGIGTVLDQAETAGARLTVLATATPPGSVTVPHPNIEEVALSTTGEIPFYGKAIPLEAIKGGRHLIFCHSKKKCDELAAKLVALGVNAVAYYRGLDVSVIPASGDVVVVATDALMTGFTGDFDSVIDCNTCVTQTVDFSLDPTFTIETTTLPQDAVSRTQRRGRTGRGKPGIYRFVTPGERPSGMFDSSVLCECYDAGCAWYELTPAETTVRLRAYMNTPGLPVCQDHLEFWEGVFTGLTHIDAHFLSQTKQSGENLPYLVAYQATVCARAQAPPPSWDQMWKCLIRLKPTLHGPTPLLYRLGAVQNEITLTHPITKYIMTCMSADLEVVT
Assay [4] has as its target Induced myeloid leukemia cell differentiation protein Mcl-1 (Homo sapiens, UniProt Q07820). The assay is described as follows: MCL1-BIM BH3 interaction inhibitors, dose response, biochemical, fluorescence polarization, BIM-BH3 peptide, 1536-well (AID 2217). (Fluorescence polarisation rises when a labelled molecule tumbles more slowly, as on binding a larger partner.)
Assay [5] has as its system Salmon testes DNA. The assay is described as follows: DNA intercalators displacing acridine orange, dose response, artefact control for KSHV LANA DNA-binding inhibitor project, biochemical, fluorescence polarization, cherry-picked samples, set 2 (AID 504727). Also on record: species or system Salmonidae.
Assay [6] in a line: inhibitors of HIV Env-driven cell fusion, dose response, cherry-pick (AID 652057). Type of assay: functional, cell-based.
Assay [7] has as its target T1, Rac GTPase-activating protein 1 (Homo sapiens, UniProt Q9H0H5).
T1 sequence (Q9H0H5 whole entry): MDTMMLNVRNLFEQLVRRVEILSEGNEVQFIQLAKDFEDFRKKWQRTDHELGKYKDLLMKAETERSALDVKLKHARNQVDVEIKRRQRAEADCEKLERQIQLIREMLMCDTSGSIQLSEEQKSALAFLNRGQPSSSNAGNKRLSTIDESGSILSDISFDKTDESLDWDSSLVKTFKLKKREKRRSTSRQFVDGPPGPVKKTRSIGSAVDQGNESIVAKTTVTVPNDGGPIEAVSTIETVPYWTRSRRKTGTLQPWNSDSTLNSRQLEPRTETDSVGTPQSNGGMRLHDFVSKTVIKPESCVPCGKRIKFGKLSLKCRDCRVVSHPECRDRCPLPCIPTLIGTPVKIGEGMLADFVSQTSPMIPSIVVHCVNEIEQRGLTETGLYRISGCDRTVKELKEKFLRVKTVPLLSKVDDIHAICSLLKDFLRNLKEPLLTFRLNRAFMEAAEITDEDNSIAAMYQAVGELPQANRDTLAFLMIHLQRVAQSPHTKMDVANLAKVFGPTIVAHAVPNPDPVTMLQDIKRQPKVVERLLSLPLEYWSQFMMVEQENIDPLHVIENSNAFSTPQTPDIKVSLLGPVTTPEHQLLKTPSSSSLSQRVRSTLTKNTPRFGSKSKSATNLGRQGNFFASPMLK
The assay is described as follows: MgcRacGAP GTPase-activating activity inhibitors, confirmation, biochemical, ADP Hunter fluorescence, primary and confirmatory (AID 624330). Type of assay: functional.

Assay [8] can be described thus: inhibitors of clade B AD8 Env fusion, dose response, cell-based, cherry-pick (AID 652062).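 Note: luciferase signal from cell-cell fusion driven by HIV-1 clade B AD8 Env; potency is for inhibitors of fusion seen as a drop in luminescence.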 Format: functional.
Assay [9] deals with Escherichia coli. The assay is described as follows: microbe, parasite or virus in culture.
Assay [10] deals with T2, ORF 73 (Human herpesvirus 8, UniProt O40947).
T2 sequence (O40947 whole entry): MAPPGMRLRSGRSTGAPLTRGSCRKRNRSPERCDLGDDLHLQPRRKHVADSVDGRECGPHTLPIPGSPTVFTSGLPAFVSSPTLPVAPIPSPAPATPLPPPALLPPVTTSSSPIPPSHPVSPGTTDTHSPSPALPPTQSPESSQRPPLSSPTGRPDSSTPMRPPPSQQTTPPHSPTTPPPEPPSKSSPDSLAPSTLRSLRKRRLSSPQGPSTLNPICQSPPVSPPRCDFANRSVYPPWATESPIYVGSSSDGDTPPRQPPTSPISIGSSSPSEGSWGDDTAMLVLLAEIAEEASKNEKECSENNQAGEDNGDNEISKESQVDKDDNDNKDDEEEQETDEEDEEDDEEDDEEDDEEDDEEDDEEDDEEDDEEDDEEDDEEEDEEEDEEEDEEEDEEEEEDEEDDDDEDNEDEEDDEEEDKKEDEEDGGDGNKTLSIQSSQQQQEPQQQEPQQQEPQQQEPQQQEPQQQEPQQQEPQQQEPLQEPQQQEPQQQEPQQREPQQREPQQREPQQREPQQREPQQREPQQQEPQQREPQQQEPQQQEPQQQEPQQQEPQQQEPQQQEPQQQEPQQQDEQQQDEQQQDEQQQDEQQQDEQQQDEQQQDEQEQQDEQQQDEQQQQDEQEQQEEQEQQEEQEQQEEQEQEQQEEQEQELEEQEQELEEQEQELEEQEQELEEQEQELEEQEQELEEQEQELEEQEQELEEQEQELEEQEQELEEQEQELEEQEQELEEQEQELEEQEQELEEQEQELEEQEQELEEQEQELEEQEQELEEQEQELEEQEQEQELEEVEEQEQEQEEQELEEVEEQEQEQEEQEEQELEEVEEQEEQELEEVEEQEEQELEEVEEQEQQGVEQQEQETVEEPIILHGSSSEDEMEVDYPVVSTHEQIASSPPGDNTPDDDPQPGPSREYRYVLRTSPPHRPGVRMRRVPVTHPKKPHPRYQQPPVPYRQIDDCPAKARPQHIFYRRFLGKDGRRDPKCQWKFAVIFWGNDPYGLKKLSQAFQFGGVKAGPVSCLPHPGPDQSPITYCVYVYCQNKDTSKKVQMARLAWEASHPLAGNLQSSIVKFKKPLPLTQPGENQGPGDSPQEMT
Put plainly: inhibitors of C-LANA binding to LBS DNA, dose response, biochemical, fluorescence polarization, cherry-picked samples (AID 504725).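 Note: fluorescence polarization of a labeled DNA duplex reporting LANA DNA binding; potency is for inhibitors that block LANA binding to the DNA.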 Also on record: species or system Human gammaherpesvirus 8.

The test system of assay [11] is Streptococcus sp. 'group A'. Put plainly: growth inhibition of control SK(-) GAS strain, dose response, counter-screen for streptokinase expression inhibitor project, luminescence, kanamycin, BacTiterGlo, confirmation (AID 1900). Type of assay: functional, organism-based. (A counterscreen serves to expose hits that act by an unwanted route or on another target.)
The subject of assay [12] is Escherichia coli. The assay is described as follows: microbe, parasite or virus in culture. The source holds these as a separate data set.
Assay [13] is described as follows: THP-1 cell cytotoxicity, dose response, cytotoxicity control for Vif-APOBEC3G degradation inhibitor project, THP-1 cells (AID 1117359). Format: functional. Conditions: Human immunodeficiency virus 1, THP-1.
The nature of assay [14]: ZM109 Env clade C HIV-1 fusion inhibitors, dose response, HeLa effector, CEM target cells, luciferase, cherry-pick (AID 652058). Format: functional, cell-based.
Assay [15] can be described thus: off-target signal loss in HeLa-CEM21 co-culture – HeLa F-luc CTL cells, cherry-picked, counter-screen for HIV-1 Env fusion inhibitor project, dose response (AID 652040).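 Note: potency for signal decrease marking cytotoxic or nonspecific inhibition.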 Type of assay: functional, cell-based.
The subject of assay [16] is Streptococcus. Put plainly: Group A Streptococcus viability loss, dose response, counter-screen for streptokinase expression inhibitor project, luminescence, BacTiterGlo (AID 1915).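 Note: potency for reduction of bacterial viability or growth.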 Type of assay: functional, organism-based.
Assay [17] addresses T3, Hexokinase HKDC1 (Homo sapiens, UniProt Q2TB90).
T3 sequence (Q2TB90 whole entry): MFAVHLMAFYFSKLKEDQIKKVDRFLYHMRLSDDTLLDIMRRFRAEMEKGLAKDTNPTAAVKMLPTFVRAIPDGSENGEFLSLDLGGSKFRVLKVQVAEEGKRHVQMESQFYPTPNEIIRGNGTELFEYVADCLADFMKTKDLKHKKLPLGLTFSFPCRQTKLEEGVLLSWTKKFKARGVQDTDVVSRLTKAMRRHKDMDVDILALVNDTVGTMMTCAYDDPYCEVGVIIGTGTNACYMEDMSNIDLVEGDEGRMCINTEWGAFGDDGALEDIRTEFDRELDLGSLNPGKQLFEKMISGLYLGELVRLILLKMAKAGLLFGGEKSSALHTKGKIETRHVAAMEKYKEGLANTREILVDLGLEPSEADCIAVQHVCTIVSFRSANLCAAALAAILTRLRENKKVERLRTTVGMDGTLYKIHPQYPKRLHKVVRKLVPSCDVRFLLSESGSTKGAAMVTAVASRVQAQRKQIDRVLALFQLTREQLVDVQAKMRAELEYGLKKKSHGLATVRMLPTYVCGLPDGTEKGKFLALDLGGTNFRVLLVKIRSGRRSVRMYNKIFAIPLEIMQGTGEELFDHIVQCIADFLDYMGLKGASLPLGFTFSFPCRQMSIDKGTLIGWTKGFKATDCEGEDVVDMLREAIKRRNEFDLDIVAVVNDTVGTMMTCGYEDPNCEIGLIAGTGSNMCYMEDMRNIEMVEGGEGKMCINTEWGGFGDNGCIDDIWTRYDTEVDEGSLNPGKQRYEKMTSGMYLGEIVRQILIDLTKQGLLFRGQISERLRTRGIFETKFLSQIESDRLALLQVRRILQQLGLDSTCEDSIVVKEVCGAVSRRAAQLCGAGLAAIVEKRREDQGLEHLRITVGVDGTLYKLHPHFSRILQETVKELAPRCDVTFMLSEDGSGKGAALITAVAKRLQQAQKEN
The assay is described as follows: SAR analysis of small molecule inhibitors of hexokinase domain containing I (HKDC1). [Related pubchem assays (depositor defined):AID493160, AID493190]. Format: functional.

Assay [18] addresses T4, Hexokinase-1 (Homo sapiens, UniProt P19367).
T4 sequence (P19367 whole entry): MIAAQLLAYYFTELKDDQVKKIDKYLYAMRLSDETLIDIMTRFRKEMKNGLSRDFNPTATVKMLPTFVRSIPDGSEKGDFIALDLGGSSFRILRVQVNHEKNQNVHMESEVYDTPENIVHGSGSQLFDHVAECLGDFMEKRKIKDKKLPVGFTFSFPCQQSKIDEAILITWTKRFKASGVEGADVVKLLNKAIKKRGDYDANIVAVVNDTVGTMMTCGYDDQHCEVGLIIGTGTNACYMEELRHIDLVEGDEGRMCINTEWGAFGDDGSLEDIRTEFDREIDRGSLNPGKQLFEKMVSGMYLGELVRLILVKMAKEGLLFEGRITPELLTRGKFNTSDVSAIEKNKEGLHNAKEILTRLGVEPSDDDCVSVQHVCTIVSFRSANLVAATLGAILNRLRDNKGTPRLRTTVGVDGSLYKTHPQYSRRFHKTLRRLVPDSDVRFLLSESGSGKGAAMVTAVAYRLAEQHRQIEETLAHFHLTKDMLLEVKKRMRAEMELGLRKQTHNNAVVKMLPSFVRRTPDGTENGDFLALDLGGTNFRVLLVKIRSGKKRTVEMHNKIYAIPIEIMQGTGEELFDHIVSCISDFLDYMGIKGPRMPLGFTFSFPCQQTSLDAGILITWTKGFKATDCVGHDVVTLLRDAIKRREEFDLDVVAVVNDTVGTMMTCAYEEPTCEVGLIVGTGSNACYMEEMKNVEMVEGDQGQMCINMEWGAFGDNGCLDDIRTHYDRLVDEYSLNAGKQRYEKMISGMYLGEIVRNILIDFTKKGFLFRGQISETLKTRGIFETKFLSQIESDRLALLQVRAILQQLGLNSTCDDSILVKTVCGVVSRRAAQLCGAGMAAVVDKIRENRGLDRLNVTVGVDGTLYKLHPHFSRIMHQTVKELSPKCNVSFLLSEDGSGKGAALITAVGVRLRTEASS
Put plainly: SAR analysis of small molecule inhibitors of hexokinase domain containing I (HKDC1) in the hexokinase 1 selectivity assay. [Related pubchem assays (depositor defined):AID493160, AID493190]. Format: functional.

Bcl-2-like protein 1, sequence (Q07817 whole entry): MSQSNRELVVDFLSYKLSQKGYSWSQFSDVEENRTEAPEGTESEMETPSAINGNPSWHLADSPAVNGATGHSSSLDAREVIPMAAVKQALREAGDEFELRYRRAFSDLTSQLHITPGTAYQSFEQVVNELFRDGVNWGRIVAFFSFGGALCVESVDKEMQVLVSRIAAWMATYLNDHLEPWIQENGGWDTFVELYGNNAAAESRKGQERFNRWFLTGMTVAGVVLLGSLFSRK
Induced myeloid leukemia cell differentiation protein Mcl-1, sequence (Q07820 whole entry): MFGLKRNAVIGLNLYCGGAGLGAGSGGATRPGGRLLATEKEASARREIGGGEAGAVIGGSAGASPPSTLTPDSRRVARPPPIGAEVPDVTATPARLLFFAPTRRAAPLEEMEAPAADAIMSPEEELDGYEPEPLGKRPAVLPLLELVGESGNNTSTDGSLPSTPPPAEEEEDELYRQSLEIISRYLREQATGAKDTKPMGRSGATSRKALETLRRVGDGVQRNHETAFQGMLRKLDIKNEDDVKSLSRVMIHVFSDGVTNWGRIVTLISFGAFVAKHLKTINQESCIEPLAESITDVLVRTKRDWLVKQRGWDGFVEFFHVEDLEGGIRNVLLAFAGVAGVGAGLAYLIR

Usually AC50 stands for the midpoint of the concentration-response curve, whichever way the signal moves. Consider `COc1cccc2c(N3CCN(C(=O)c4ccc(Cl)cc4)CC3)cc(C)nc12`, for which the AC50 in assay [1] was > 260 µM (inactive).

As usually defined, the IC50 is the concentration at which inhibition is half-maximal. Broadly, the EC50 is the concentration that produces a half-maximal response. Broadly, the CC50 is the concentration that lowers cell viability or growth by half. Turning to `CN(C)c1ccc(O)c2c1CC1CC3[C@@H](N(C)C)C(O)=C(C(N)=O)C(=O)[C@]3(O)C(O)=C1C2=O` (stereo partly drawn), the IC50 was > 109 µM (not active) in [2], > 109 µM (not active) in [3], 9.39 µM (active) in [4] and 120 µM (active) in assay [7]. For the same compound, the AC50 was 46.2 µM (active) in assay [5]; < 0.26 µM (active) in assay [6]; < 0.26 µM (active) in [8]; 11.2 µM (active) in assay [9]; 25.6 µM (active) in assay [10]; 1.06 µM (active) in [12]. Further, the half-maximal activity concentration (AC50) in assay [14] and in assay [15] was < 0.26 µM (active) each time. Also, the EC50 in [11] is 0.079 µM (active); in assay [16] it was 0.173 µM (active). The CC50 in [13] was > 40 µM (active).

`COc1cc2c(cc1OC)-c1cc(NCc3ccc(F)cc3)nc(=O)n1CC2`: the IC50 in assay [17] and in [18] was > 80 µM (inactive) each time.
